Assay [1] relates to bFGF-stimulated capillary EC. In words: Inhibition of bFGF-stimulated capillary EC proliferation by fragments of troponin I (Example 13, Table 2). It is filed as cell-based, bovine. The note with it: for IC50: read-out: Approx. IC50. The protocol:
On day one, 5,000 bovine capillary endothelial cells in DMEM/10% CS/1% GPS are plated onto each well of a 96-well pregelatinized tissue culture plate. On day two, the cell media is changed to DMEM, 2% CS, 1% GPS, 0.5% BSA (complete medium), supplemented with 10 μl of 1 mg/ml “cold” thymidine per 50 ml of medium. On day three, test samples in complete medium are added in duplicate. Additionally, […] (bFGF) is added to each well except for the appropriate controls, to a final concentration of 0.2 ng/well. On day four, 5 μl of 1:13 diluted ^3H-Thymidine stock is added to each well and the plate is incubated for 5–6 hours. Following incubation, the medium is aspirated, and the remainder is rinsed once with PBS, then twice for 5 minutes each with methanol followed by two rinses each for 10 minutes with 5% TCA. The cells are then rinsed with water three times, dried to the plate, and 100 μl of 0.3 N NaOH is added to each well. The contents of the well are then transferred to the scintillation counter vials and 3 mls of Ecolume added to each vial. Samples are then counted on the scintillation counter.
Recombinant peptides corresponding to fragments of rabbit (rb) TnI (SEQ ID NO:10) (FIG. 12) were tested for ability to inhibit bFGF-stimulated capillary EC as described above in Section 6, Examples 2 and 8. The rbTnI fragments (SEQ ID NOS:11–15) were prepared according to Jha et al., 1996, Biochemistry 35(34):11026–11035.

Assay [2] has as its system embryonic neovascularization of the chick chorioallantoic membrane. As to conditions: cited from earlier work; for Lowest reported dose effective as combination in the CAM assay: combined with hydrocortisone (60 μg).
Assay [3] has as its system bovine capillary endothelial cells (BCE), bFGF-stimulated. In words: bFGF-stimulated capillary endothelial cell proliferation, colorimetric acid phosphatase assay (Example 3). It is filed as cell-based. The procedure:
A quick and sensitive screen for inhibition of EC proliferation in response to treatment with a troponin subunit, homolog, or derivative of the invention involves incubating the cells in the presence of varying concentrations of the inhibitor and determining the number of endothelial cells in culture based on the colorimetric determination of cellular acid phosphatase activity, described by Connolly, et al., 1986, J. Anal. Biochem. 152:136–140.
The effect of troponin on the proliferation of capillary endothelial cells (EC) was measured in an assay which measures the ability of this protein to interfere with stimulation of endothelial cell proliferation by a known angiogenesis factor (bFGF).
Capillary endothelial cells and Balb/c 3T3 cells were separately plated (2×10^3/0.2 ml) onto gelatin-coated 96-well tissue culture dishes on day 1. On day 2, cells were refed with Dulbecco's modified Eagle's medium (Gibco) with 5% calf serum (Hyclone) (DMEM/5) and bFGF (10 ng/ml) (FGF Co.) and increasing concentrations of one or more troponin subunits. […] Wells containing phosphate buffered saline (PBS) (Gibco) alone and PBS+bFGF were included as controls. On day 5, media was removed and cells were washed with PBS and lysed in 100 μl of buffer containing 0.1 M sodium acetate (pH 5.5), 0.1% Triton X-100™ and 100 mM p-nitrophenyl phosphate (Sigma 104 phosphatase substrate). After incubation for 2 hours at 37° C., the reaction was stopped with the addition of 10 μl of 1 N NAOH. Color development was determined at 405 nm using a rapid microplate reader (Bio-Tek).
Percent inhibition was determined by comparing the cell number of wells exposed to stimulus with those exposed to stimulus and troponin subunits.

No end group written: not given here. Some results are limits rather than exact numbers.

On to “122–181: recombinant rabbit TnI fragment, C′ region, aa 122–181 (LKALLGSKHKVCMDLRANLKQVKKEDTEKERDLRDVGDWRKNIEEKSGMEGRKKMFESES; listed as Oryctolagus cuniculus)”, for which, in assay [1], the “Approx. IC50 μg/well” value is on record as above 0.3 μg/well. The “% I (Percent Inhibition) of EC proliferation” value (“% I (Percent Inhibition)” below) is listed as −1% in assay [1] (0.01 μg/well), −6% in assay [1] (0.025 μg/well), 20% in assay [1] (0.1 μg/well) and 23% in assay [1] (0.3 μg/well). In addition, the IC50 in assay [1] is above 200 nM.

For the molecule B-cyclodextrin tetradecasulfate, the “Lowest reported dose effective as combination in the CAM assay” value in assay [2] was 14 µg.

In the case of CMDLRANL [134–141], in assay [1], the “Approx. IC50 μg/well” value stood at 150 μg/well.

On to DAMLKALL [120–127], for which the “Approx. IC50 μg/well” value in assay [1] is >>50 μg/well.

Consider DLRANLKQ [136–143], for which the “Approx. IC50 μg/well” value in assay [1] is recorded as >>50 μg/well.

As for DLRGKFKRPPLRRVRMSADA [102–121], in assay [1], the “Approx. IC50 μg/well” value is >>20 μg/well.

With EDMNQKLFDLRGKFKRPPLR [94–113], in assay [1], the “Approx. IC50 μg/well” value is >>20 μg/well.

Consider GSKHKVCM [128–135], for which the “Approx. IC50 μg/well” value in assay [1] stood at 150 μg/well.

For KALLGSKH [124–131], the “Approx. IC50 μg/well” value in assay [1] is reported as >>50 μg/well.

Consider KFKRPPLRRVRMSADAMLKA [102–125], for which, in assay [1], the “Approx. IC50 μg/well” value is recorded as >>20 μg/well.

Consider KHKVCMDL [130–137], for which, in assay [1], the “Approx. IC50 μg/well” value came to 50 μg/well.

Turning to KLFDLRGKFKRPPLRRV [98–114], in assay [1], the “Approx. IC50 μg/well” value was >>40 μg/well.

KVCMDLRA [132–139]: the “Approx. IC50 μg/well” value in assay [1] is 75 μg/well.

LLGSKHKV [126–133]: in assay [1], the “Approx. IC50 μg/well” value is >>50 μg/well.

For MLKALLGS [122–129], the “Approx. IC50 μg/well” value in assay [1] is >>50 μg/well.

Consider PPLRRVRMSADAMLKALLGS [110–129], for which the “Approx. IC50 μg/well” value in assay [1] was >>20 μg/well.

As to QKLFDLRGKFKRPPLRRVRM [98–117], the “Approx. IC50 μg/well” value in assay [1] is reported as >>20 μg/well.

As to RMSADAML [116–123], the “Approx. IC50 μg/well” value in assay [1] was >>50 μg/well.

As for RVRMSADAMLKALLGSKHKV [114–133], in assay [1], the “Approx. IC50 μg/well” value is reported as >>20 μg/well.

For SADAMLKA [118–125], the “Approx. IC50 μg/well” value in assay [1] is >>50 μg/well.

With SADAMLKALLGSKHKVCMDL [118–137], the “Approx. IC50 μg/well” value in assay [1] stood at 40 μg/well.

In turn, “Troponin C: troponin subunit C, calcium binding polypeptide of the troponin complex; human fast twitch sequence SEQ ID NO:1” had an IC50 in assay [3] of 278 nM. The “Percent inhibition of BCE proliferation” value in assay [3] (280 nM) was 54%; in assay [3] (1.4 μM) it was 86%; in assay [3] (2.8 μM), 83%; in assay [3] (5.6 μM (20 μg/well)), 100%.

The molecule “Troponin T: troponin subunit T, tropomyosin binding polypeptide of the troponin complex; SEQ ID NO:3” came in with a concentration for half-maximal inhibition (IC50) in assay [3] of 2140 nM. In addition, the “Percent inhibition of BCE proliferation” value in assay [3] (1.6 μM) came out at 23%; in assay [3] (3.3 μM) it was 62%. For the same molecule, in assay [3] (1 and 5 μg/well), the “Inhibition of bFGF-stimulated EC proliferation (in words)” value is on record as “not”.

Turning to heparin, in assay [2], the “Lowest reported dose effective as combination in the CAM assay” value is 50 µg.

Take protamine: the “Reported dose of angiogenesis inhibitor tested alone in the CAM assay” value in assay [2] was 50 µg.

B1: 1–120: recombinant rabbit TnI fragment, N′ and inhibitory (I′) region, aa 1–120 (protein, listed as Oryctolagus cuniculus)
chain: GDEEKRNRAITARRQHLKSVMLQIAATELEKEEGRREAEKQNYLAEHCPPLSLPGSMAEVQELCKQLHAKIDAAEEEKYDMEIKVQKSSKELEDMNQKLFDLRGKFKRPPLRRVRMSADA
Consider B1, for which the “Approx. IC50 μg/well” value in assay [1] is >>0.3 μg/well. Further, the “% I (Percent Inhibition)” value was 6% in assay [1] (0.01 μg/well), 0% in assay [1] (0.025 μg/well), 12% in assay [1] (0.1 μg/well) and 17% in assay [1] (0.3 μg/well). For the same molecule, the IC50 in assay [1] is above 100 nM.

B2: platelet factor IV: previously described angiogenesis inhibitor (Taylor et al. 1982) (protein, UniProt P02776 32-101, looked up)
Platelet factor 4: EAEEDGDLQCLCVKTTSQVRPRHITSLEVIKAGPHCPTAQLIATLKNGRKICLDLQAPLYKKIIKKLLES
As for B2, the “Reported dose of angiogenesis inhibitor tested alone in the CAM assay” value in assay [2] was 10 µg.

B3: 96–181: recombinant rabbit TnI fragment, carboxy terminus (C′) and I′ region, aa 96–181 (protein, listed as Oryctolagus cuniculus)
chain: NQKLFDLRGKFKRPPLRRVRMSADAMLKALLGSKHKVCMDLRANLKQVKKEDTEKERDLRDVGDWRKNIEEKSGMEGRKKMFESES
B3: the “% I (Percent Inhibition)” value in assay [1] (0.01 μg/well) came to 25%; in assay [1] (0.025 μg/well), 28%; in assay [1] (0.1 μg/well) it was 54%; in assay [1] (0.3 μg/well), 48%.

B4: 1–94: recombinant rabbit TnI fragment, amino-terminal (N′) region, aa 1–94 (protein, listed as Oryctolagus cuniculus)
chain: GDEEKRNRAITARRQHLKSVMLQIAATELEKEEGRREAEKQNYLAEHCPPLSLPGSMAEVQELCKQLHAKIDAAEEEKYDMEIKVQKSSKELED
As to B4, the “Approx. IC50 μg/well” value in assay [1] is above 0.3 μg/well. The “% I (Percent Inhibition)” value in assay [1] (0.01 μg/well) is −12%; in assay [1] (0.025 μg/well), 6%; in assay [1] (0.1 μg/well), 31%; in assay [1] (0.3 μg/well) it was 28%. The IC50 in assay [1] was above 100 nM.

B5: Troponin I: troponin subunit I, inhibitory polypeptide of the troponin complex; human fast twitch sequence SEQ ID NO:2 (protein, listed as Homo sapiens)
chain: MGDEEKRNRAITARRQHLKSVMLQIAATELEKEESRREAEKQNYLAEHCPPLHIPGSMSEVQELCKQLHAKIDAAEEEKYDMEVRVQKTSKELEDMNQKLFDLRGKFKRPPLRRVRMSADAMLKALLGSKHKVCMDLRANLKQVKKEDTEKERDLRDVGDWRKNIEEKSGMEGRKKMFESES
As to B5, the IC50 in assay [3] was 1140 nM. Further, the “Percent inhibition of BCE proliferation” value is 33% in assay [3] (240 nM); 46% in assay [3] (1.2 μM (5 μg/well), 1.2 µM); “approximately 46%” in assay [3] (1.2 μM (5 μg/well), listed as full-length TnI, 1.2 µM). In addition, in assay [3] (10 μg/well), the “Inhibition of bFGF-stimulated BCE proliferation (in words)” value was “inhibition was not observed”.

The record behind these values is patent US7078385B2, “Methods of inhibiting angiogenesis with fragments and homologs of troponin subunit I” (Boston Life Sciences, Inc., priority 1996, dated 2006).
